Kd data for three compounds are collected here from PMC10540511 (Cellular and molecular life sciences : CMLS, 2023).

The target of one assay is T1, CBM98 (BoGH13ASus CBM98) (Bacteroides ovatus, UniProt A0ABU3ISA0).
T1 sequence (A0ABU3ISA0 22-143): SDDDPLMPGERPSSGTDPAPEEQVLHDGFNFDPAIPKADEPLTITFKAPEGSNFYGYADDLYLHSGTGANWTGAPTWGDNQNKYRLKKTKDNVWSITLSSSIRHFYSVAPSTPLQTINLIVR
As to the kind of experiment: isothermal titration calorimetry. Particulars: read-out: Kd (μM) ± SD; 25 °C, 20 mM HEPES pH 7.0, 100 mM NaCl. The assay is classed as binding.

Assay [1] concerns the target T2, CBM98-CBM48 (BoGH13ASus CBM98-CBM48) (Bacteroides ovatus, UniProt A0ABU3ISA0).
T2 sequence (A0ABU3ISA0 22-296): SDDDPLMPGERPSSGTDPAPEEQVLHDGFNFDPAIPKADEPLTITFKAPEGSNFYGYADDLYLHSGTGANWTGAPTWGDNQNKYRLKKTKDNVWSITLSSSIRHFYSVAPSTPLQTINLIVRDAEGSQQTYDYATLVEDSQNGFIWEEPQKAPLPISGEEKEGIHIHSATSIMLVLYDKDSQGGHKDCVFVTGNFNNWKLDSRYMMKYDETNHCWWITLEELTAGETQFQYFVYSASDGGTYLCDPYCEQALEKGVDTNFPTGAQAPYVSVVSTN
The assay can be described thus: isothermal titration calorimetry. The assay is classed as binding. Particulars: read-out: Kd (μM) ± SD, 25 °C, 20 mM HEPES pH 7.0, 100 mM NaCl. In general terms: ITC needs no label: the signal is the heat of the interaction.

The mark [2] stands for this setting: standard-volume instrument, 25 μM protein.

Molecules are shown by their SMILES. Where two headings read alike, the source gives them in different places.

As a reminder, the Kd is the concentration at which binding is half-saturated. For the compound `OC[C@H]1O[C@H](O[C@H]2[C@H](O)[C@@H](O)[C@@H](O[C@H]3[C@H](O)[C@@H](O)[C@@H](O[C@H]4[C@H](O)[C@@H](O)[C@@H](O[C@H]5[C@H](O)[C@@H](O)[C@@H](O[C@H]6[C@H](O)[C@@H](O)[C@@H](O[C@H]7[C@H](O)[C@@H](O)C(O)O[C@@H]7CO)O[C@@H]6CO)O[C@@H]5CO)O[C@@H]4CO)O[C@@H]3CO)O[C@@H]2CO)[C@H](O)[C@@H](O)[C@@H]1O` (stereo partly drawn) [G7, maltoheptaose], the Kd on CBM98 (BoGH13ASus CBM98) was found to be 32 ± 9.8 µM; in assay [1] it was 33 ± 9.9 µM.

`OC[C@H]1O[C@@H]2O[C@H]3[C@H](O)[C@@H](O)[C@@H](O[C@H]4[C@H](O)[C@@H](O)[C@@H](O[C@H]5[C@H](O)[C@@H](O)[C@@H](O[C@H]6[C@H](O)[C@@H](O)[C@@H](O[C@H]7[C@H](O)[C@@H](O)[C@@H](O[C@H]1[C@H](O)[C@H]2O)O[C@@H]7CO)O[C@@H]6CO)O[C@@H]5CO)O[C@@H]4CO)O[C@@H]3CO` [αCD, α-cyclodextrin]: the dissociation constant Kd was 42 ± 13 µM on CBM98 (BoGH13ASus CBM98) and 43 ± 18 µM in assay [1] (setting [2]).

In the case of `OC[C@H]1O[C@@H]2O[C@H]3[C@H](O)[C@@H](O)[C@@H](O[C@H]4[C@H](O)[C@@H](O)[C@@H](O[C@H]5[C@H](O)[C@@H](O)[C@@H](O[C@H]6[C@H](O)[C@@H](O)[C@@H](O[C@H]7[C@H](O)[C@@H](O)[C@@H](O[C@H]8[C@H](O)[C@@H](O)[C@@H](O[C@H]1[C@H](O)[C@H]2O)O[C@@H]8CO)O[C@@H]7CO)O[C@@H]6CO)O[C@@H]5CO)O[C@@H]4CO)O[C@@H]3CO` [βCD, β-cyclodextrin], the Kd on CBM98 (BoGH13ASus CBM98) came out at 26 ± 3.8 µM; in assay [1] (setting [2]), 21 ± 1.4 µM.
